Measured values reported in PubChem BioAssay (NCI).
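Five compound concentrations were applied to cells in 96-well plates for 48 hours; endpoints were derived by simple linear interpolation of the resulting dose-response curve. TGI marks complete inhibition of growth.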

What was measured:
Assay in all cases: inhibition of tumour cell growth, NCI panel, 48 h
M19-MEL melanoma = tested on: M19-MEL melanoma
HCT-15 colon = tested on: HCT-15 colon
DMS 114 small cell lung = tested on: DMS 114 small cell lung
HT29 colon = tested on: HT29 colon
UACC-62 melanoma = tested on: UACC-62 melanoma
MALME-3M melanoma = tested on: MALME-3M melanoma
SK-MEL-2 melanoma = tested on: SK-MEL-2 melanoma
SK-OV-3 ovarian = tested on: SK-OV-3 ovarian
HCT-116 colon = tested on: HCT-116 colon
SN12C renal = tested on: SN12C renal
HOP-92 NSCLC = tested on: HOP-92 NSCLC
LXFL 529 NSCLC = tested on: LXFL 529 NSCLC
NCI-H522 lung = tested on: NCI-H522 lung
SNB-78 CNS = tested on: SNB-78 CNS
KM12 colon = tested on: KM12 colon
SK-MEL-5 melanoma = tested on: SK-MEL-5 melanoma
SF-539 CNS = tested on: SF-539 CNS
COLO 205 colon = tested on: COLO 205 colon
786-0 renal = tested on: 786-0 renal
TK-10 renal = tested on: TK-10 renal
SF-295 CNS = tested on: SF-295 CNS
HCC-2998 colon = tested on: HCC-2998 colon
NCI-H226 lung = tested on: NCI-H226 lung
SW-620 colon = tested on: SW-620 colon
OVCAR-8 ovarian = tested on: OVCAR-8 ovarian
SNB-19 CNS = tested on: SNB-19 CNS
SK-MEL-28 melanoma = tested on: SK-MEL-28 melanoma
OVCAR-5 ovarian = tested on: OVCAR-5 ovarian
IGROV1 ovarian = tested on: IGROV1 ovarian
U251 CNS = tested on: U251 CNS
A549 NSCLC = tested on: A549 NSCLC
SF-268 CNS = tested on: SF-268 CNS
OVCAR-4 ovarian = tested on: OVCAR-4 ovarian
UACC-257 melanoma = tested on: UACC-257 melanoma
RXF 393 renal = tested on: RXF 393 renal
ACHN renal = tested on: ACHN renal
KM20L2 colon = tested on: KM20L2 colon
CAKI-1 renal = tested on: CAKI-1 renal
NCI-H23 lung = tested on: NCI-H23 lung
UO-31 renal = tested on: UO-31 renal
EKVX NSCLC = tested on: EKVX NSCLC
OVCAR-3 ovarian = tested on: OVCAR-3 ovarian
DMS 273 small cell lung = tested on: DMS 273 small cell lung
SNB-75 CNS = tested on: SNB-75 CNS
HOP-18 NSCLC = tested on: HOP-18 NSCLC
HOP-62 NSCLC = tested on: HOP-62 NSCLC
XF 498 CNS = tested on: XF 498 CNS
MOLT-4 leukemia = tested on: MOLT-4 leukemia
A498 renal = tested on: A498 renal
RPMI-8226 leukemia = tested on: RPMI-8226 leukemia
K-562 leukemia = tested on: K-562 leukemia
NCI-H460 lung = tested on: NCI-H460 lung
HL-60(TB) leukemia = tested on: HL-60(TB) leukemia
DLD-1 colon = tested on: DLD-1 colon
CCRF-CEM leukemia = tested on: CCRF-CEM leukemia
RXF-631 renal = tested on: RXF-631 renal
SR leukemia = tested on: SR leukemia
M14 melanoma = tested on: M14 melanoma
LOX IMVI melanoma = tested on: LOX IMVI melanoma

Measured: TGI

O=C1C=CC=C/C1=C1/SC(c2ccccc2)=C(O)N1c1ccccc1
> 100 µM: M19-MEL melanoma | HCT-15 colon | DMS 114 small cell lung | HT29 colon | UACC-62 melanoma | MALME-3M melanoma | SK-MEL-2 melanoma | SK-OV-3 ovarian | HCT-116 colon | SN12C renal | HOP-92 NSCLC | LXFL 529 NSCLC | NCI-H522 lung | SNB-78 CNS | KM12 colon | SK-MEL-5 melanoma | SF-539 CNS | COLO 205 colon | 786-0 renal | TK-10 renal | SF-295 CNS | HCC-2998 colon | NCI-H226 lung | SW-620 colon | OVCAR-8 ovarian | SNB-19 CNS | SK-MEL-28 melanoma | OVCAR-5 ovarian | IGROV1 ovarian | U251 CNS | A549 NSCLC | SF-268 CNS | OVCAR-4 ovarian | UACC-257 melanoma | RXF 393 renal | ACHN renal | KM20L2 colon | CAKI-1 renal | NCI-H23 lung | UO-31 renal | EKVX NSCLC | OVCAR-3 ovarian | DMS 273 small cell lung | SNB-75 CNS

NC(=O)c1ccccc1[N+](=O)[O-]
> 100 µM: M19-MEL melanoma | HOP-18 NSCLC | HOP-62 NSCLC | HCT-15 colon | XF 498 CNS | DMS 114 small cell lung | HT29 colon | UACC-62 melanoma | MALME-3M melanoma | HCT-116 colon | SN12C renal | HOP-92 NSCLC | SNB-78 CNS | SK-MEL-5 melanoma | SF-539 CNS | MOLT-4 leukemia | COLO 205 colon | 786-0 renal | HCC-2998 colon | A498 renal | SW-620 colon | OVCAR-8 ovarian | SNB-19 CNS | SK-MEL-28 melanoma | IGROV1 ovarian | U251 CNS | A549 NSCLC | SF-268 CNS | RPMI-8226 leukemia | ACHN renal | KM20L2 colon | CAKI-1 renal | EKVX NSCLC | OVCAR-3 ovarian | DMS 273 small cell lung | SNB-75 CNS | K-562 leukemia

CCc1cccc(C)c1NC(=O)C(=O)CC(=O)c1ccc(Cl)s1
> 100 µM: M19-MEL melanoma | HOP-18 NSCLC | HOP-62 NSCLC | HCT-15 colon | HT29 colon | NCI-H460 lung | UACC-62 melanoma | HL-60(TB) leukemia | MALME-3M melanoma | SK-MEL-2 melanoma | SK-OV-3 ovarian | HCT-116 colon | SN12C renal | HOP-92 NSCLC | LXFL 529 NSCLC | SNB-78 CNS | KM12 colon | SF-539 CNS | MOLT-4 leukemia | 786-0 renal | TK-10 renal | DLD-1 colon | SF-295 CNS | HCC-2998 colon | CCRF-CEM leukemia | RXF-631 renal | NCI-H226 lung | A498 renal | SR leukemia | SW-620 colon | OVCAR-8 ovarian | SNB-19 CNS | SK-MEL-28 melanoma | IGROV1 ovarian | U251 CNS | A549 NSCLC | SF-268 CNS | OVCAR-4 ovarian | UACC-257 melanoma | ACHN renal | KM20L2 colon | CAKI-1 renal | M14 melanoma | NCI-H23 lung | UO-31 renal | EKVX NSCLC | SNB-75 CNS | K-562 leukemia | LOX IMVI melanoma

C[N+](C)(C)CC(=O)N/N=C(/C(=O)Nc1ccc(Br)cc1)C1C(=O)NC(=O)NC1=O
> 100 µM: M19-MEL melanoma | HOP-18 NSCLC | HOP-62 NSCLC | HCT-15 colon | DMS 114 small cell lung | HT29 colon | NCI-H460 lung | UACC-62 melanoma | HL-60(TB) leukemia | MALME-3M melanoma | SK-MEL-2 melanoma | SK-OV-3 ovarian | HCT-116 colon | SN12C renal | LXFL 529 NSCLC | NCI-H522 lung | SNB-78 CNS | KM12 colon | SK-MEL-5 melanoma | SF-539 CNS | MOLT-4 leukemia | COLO 205 colon | 786-0 renal | TK-10 renal | DLD-1 colon | SF-295 CNS | HCC-2998 colon | CCRF-CEM leukemia | RXF-631 renal | NCI-H226 lung | A498 renal | SR leukemia | SW-620 colon | SNB-19 CNS | SK-MEL-28 melanoma | OVCAR-5 ovarian | IGROV1 ovarian | U251 CNS | A549 NSCLC | SF-268 CNS | OVCAR-4 ovarian | RPMI-8226 leukemia | UACC-257 melanoma | RXF 393 renal | ACHN renal | KM20L2 colon | CAKI-1 renal | M14 melanoma | NCI-H23 lung | UO-31 renal | EKVX NSCLC | OVCAR-3 ovarian | DMS 273 small cell lung | SNB-75 CNS | K-562 leukemia | LOX IMVI melanoma
